From patent publication US11186585B2 (priority 2018, dated 2021)
“And” between values parts separate entries of the source, which are not always exact repeats. Equal entries are not always repeated. Structures can show the parent of a compound that is named as a salt.

Tests used:
Sprague-Dawley rats = assay: Antinociceptive activity, cold ethanol tail-flick test after oral gavage; format: in vivo, rat; conditions: for Analgesia (rat): oral gavage in sesame oil, 60 uM/kg, one dose, tail-flick at −20° C., cutoff 40 seconds; for analgesia in rats, in words: given orally, compared with equivalent dose of Nalbuphine (parent opioid)
[1] = Stability in the simulated gastro-intestinal fluid (sGIF); conditions: 0.5% pepsine in 0.1N aqueous HCl, 37° C.; acceptance: NLT 80% of the derivative still intact after 4 hrs
[2] = Stability in human plasma; conditions: 37° C., acceptance criteria: NLT than 20% of hydrolysis after 4 hrs
rats = assay: Randall-Selitto test after SC dose; format: in vivo, rat; conditions: NB-33.HCl 3.9 mg/kg; for Randall-Selitto (g), individual animal: NB.HCl 3 mg/kg; for Randall-Selitto (g), Mean: mean of 5, NB.HCl 3 mg/kg
Excerpt: FIG. 13 illustrate in the graphical form the results for 1310 NB-33, marked 1310, in comparison to the base NB compound NB, marked 1320 in FIG. 13.

In the case of CC(C)=CCC/C(C)=C/COc1ccc2c3c1OC1C(O)CCC4(O)C(C2)N(CC2CCC2)CCC314 (stereo not shown) [NB-20, (E)-3-(cyclobutylmethyl)-9-((3,7-dimethylocta-2,6-dien-1-yl)oxy)-1,2,3,4,5,6,7,7a-octahydro-4aH-4,12-methanobenzofuro[3,2-e]isoquinoline-4a,7-diol], the “Analgesia (rat)” value (Sprague-Dawley rats) is reported as “No”, the “Stable in sGIF” value [1] is reported as “No” and the Stable in plasma [2] is reported as “No”.

In the case of CC(C)=CCC/C(C)=C/CC/C(C)=C/COc1ccc2c3c1OC1C(O)CCC4(O)C(C2)N(CC2CCC2)CCC314 (stereo not shown) [NB-28, 3-(cyclobutylmethyl)-9-(((2E,6E)-3,7,11-trimethyldodeca-2,6,10-trien-1-yl)oxy)-1,2,3,4,5,6,7,7a-octahydro-4aH-4,12-methanobenzofuro[3,2-e]isoquinoline-4a,7-diol], the “Analgesia (rat)” value (Sprague-Dawley rats) is reported as “No”, the “Stable in sGIF” value [1] is reported as “No” and the Stable in plasma [2] is reported as “No”.

For C=CCCCCCCCCC(=O)Oc1ccc2c3c1OC1C(O)CCC4(O)C(C2)N(CC2CCC2)CCC314 (stereo not shown) [NB-31, 3-(cyclobutylmethyl)-4a,7-dihydroxy-2,3,4,4a,5,6,7,7a-octahydro-1H-4,12-methanobenzofuro[3,2-e]isoquinolin-9-yl undec-10-enoate], the “analgesia in rats, in words” value (Sprague-Dawley rats) was “no analgesia”, the “Analgesia (rat)” value (Sprague-Dawley rats) was “Inactive” and the “Stable in sGIF” value [1] was “Yes”. For the same compound, the Stable in plasma [2] was “No”.

For CC(C)=CCC/C(C)=C/C(=O)Oc1ccc2c3c1OC1C(O)CCC4(O)C(C2)N(CC2CCC2)CCC314 (stereo not shown) [NB-32, 3-(cyclobutylmethyl)-4a,7-dihydroxy-2,3,4,4a,5,6,7,7a-octahydro-1H-4,12-methanobenzofuro[3,2-e]isoquinolin-9-yl (E)-3,7-dimethylocta-2,6-dienoate], the “analgesia in rats, in words” value (Sprague-Dawley rats) was “no analgesia”, the “Analgesia (rat)” value (Sprague-Dawley rats) was “Inactive” and the “Stable in sGIF” value [1] was “Yes”. For the same compound, the Stable in plasma [2] was “No”.

In the case of CC(C)C(=O)Oc1ccc2c3c1OC1C(O)CCC4(O)C(C2)N(CC2CCC2)CCC314 (stereo not shown) [NB-46, 3-(cyclobutylmethyl)-4a,7-dihydroxy-2,3,4,4a,5,6,7,7a-octahydro-1H-4,12-methanobenzofuro[3,2-e]isoquinolin-9-yl isobutyrate], the “Analgesia (rat)” value (Sprague-Dawley rats) is reported as “No”, the “Stable in sGIF” value [1] is reported as “Yes” and the Stable in plasma [2] is reported as “Yes”.

With CC(C)=CC(=O)Oc1ccc2c3c1OC1C(O)CCC4(O)C(C2)N(CC2CCC2)CCC314 (stereo not shown) [NB-51, 3-(cyclobutylmethyl)-4a,7-dihydroxy-2,3,4,4a,5,6,7,7a-octahydro-1H-4,12-methanobenzofuro[3,2-e]isoquinolin-9-yl 3-methylbut-2-enoate] the “Analgesia (rat)” value (Sprague-Dawley rats) was “Inactive”, the “Stable in sGIF” value [1] was “Yes” and the Stable in plasma [2] was “No”.

For C/C=C(\C)C(=O)Oc1ccc2c3c1OC1C(O)CCC4(O)C(C2)N(CC2CCC2)CCC314 (stereo not shown) [NB-52, 3-(cyclobutylmethyl)-4a,7-dihydroxy-2,3,4,4a,5,6,7,7a-octahydro-1H-4,12-methanobenzofuro[3,2-e]isoquinolin-9-yl (E)-2-methylbut-2-enoate], the “analgesia in rats, in words” value (Sprague-Dawley rats) was “no analgesia”, the “Analgesia (rat)” value (Sprague-Dawley rats) was “Inactive” and the “Stable in sGIF” value [1] was “Yes”. For the same compound, the Stable in plasma [2] was “No”.

In the case of CC=C(OC)C(=O)Oc1ccc2c3c1OC1C(O)CCC4(O)C(C2)N(CC2CCC2)CCC314 (stereo not shown) [NB-58, 3-(cyclobutylmethyl)-4a,7-dihydroxy-2,3,4,4a,5,6,7,7a-octahydro-1H-4,12-methanobenzofuro[3,2-e]isoquinolin-9-yl 2-methoxybut-2-enoate], the “Analgesia (rat)” value (Sprague-Dawley rats) is reported as “No”, the “Stable in sGIF” value [1] is reported as “No” and the Stable in plasma [2] is reported as “No”.

For C/C=C/C=C/C(=O)Oc1ccc2c3c1OC1C(OC(C)=O)CCC4(O)C(C2)N(CC2CCC2)CCC314 (stereo not shown) [NB-76, 7-acetoxy-3-(cyclobutylmethyl)-4a-hydroxy-2,3,4,4a,5,6,7,7a-octahydro-1H-4,12-methanobenzofuro[3,2-e]isoquinolin-9-yl (2E,4E)-hexa-2,4-dienoate], the “Analgesia (rat)” value (Sprague-Dawley rats) was “moderate”, the “Stable in sGIF” value [1] was “Yes” and the Stable in plasma [2] was “No”.

For O=C(/C=C/c1ccccc1)Oc1ccc2c3c1OC1C(O)CCC4(O)C(C2)N(CC2CCC2)CCC314 (stereo not shown) [NB-78, 3-(cyclobutylmethyl)-4a,7-dihydroxy-2,3,4,4a,5,6,7,7a-octahydro-1H-4,12-methanobenzofuro[3,2-e]isoquinolin-9-yl cinnamate], the “analgesia in rats, in words” value (Sprague-Dawley rats) was “no analgesia”, the “Analgesia (rat)” value (Sprague-Dawley rats) was “Inactive” and the “Stable in sGIF” value [1] was “Yes”. For the same compound, the Stable in plasma [2] was “No”.

For Oc1ccc2c3c1O[C@H]1[C@@H](O)CC[C@@]4(O)[C@@H](C2)N(CC2CCC2)CC[C@]314 [NB.HCl], the “Randall-Selitto (g), individual animal” value (rats; Post-dose 0.5 hr) was 78 g and 89 g and 93 g and 107 g and 134 g, the “Randall-Selitto (g), Mean” value (rats; Post-dose 0.5 hr) was 100.2 g and the “Randall-Selitto (g), individual animal” value (rats; Post-dose 1 hr) was 63 g and 62 g and 92 g and 90 g and 96 g. For the same compound, the “Randall-Selitto (g), Mean” value (rats; Post-dose 1 hr) was 80.6 g, the “Randall-Selitto (g), individual animal” value (rats; Post-dose 2 hr) was 58 g and 71 g and 103 g and 69 g and 93 g and the “Randall-Selitto (g), Mean” value (rats; Post-dose 2 hr) was 78.8 g. The “Randall-Selitto (g), individual animal” value (rats; Post-dose 4 hr) was 64 g and 66 g and 93 g (2×) and 61 g, the “Randall-Selitto (g), Mean” value (rats; Post-dose 4 hr) was 75.4 g and the “Randall-Selitto (g), individual animal” value (rats; Post-dose 6 hr) was 50 g and 71 g and 82 g and 69 g and 85 g. For the same compound, the “Randall-Selitto (g), Mean” value (rats; Post-dose 6 hr) was 71.4 g, the “Randall-Selitto (g), individual animal” value (rats; Pre-treatment (baseline)) was 89 g and 92 g and 100 g and 80 g and 91 g and the “Randall-Selitto (g), Mean” value (rats; Pre-treatment (baseline)) was 90.4 g.
